Paper PMC9168620, “Genetic validation of Aspergillus fumigatus phosphoglucomutase as a viable therapeutic target in invasive aspergillosis” (The Journal of Biological Chemistry, 2022)
“And” between values parts separate entries of the source, which are not always exact repeats. Equal values may be shown once. Read-outs that look alike come from different tables or passages of the source.

Columns and labels:
AfPGM = target: T1, AfPGM (Aspergillus fumigatus, UniProt Q4WY53); assay: biochemical; conditions: for IC50 / IC50 AfPGM: WT AfPGM 5 nM, no preincubation, 500 μM Glc-1P
T1 construct: Full length AfPGM; 6His-GST (N, cleaved yes); made in house; host or cells: E. coli BL21 (DE3) pLysS
T1 sequence (Q4WY53 whole entry): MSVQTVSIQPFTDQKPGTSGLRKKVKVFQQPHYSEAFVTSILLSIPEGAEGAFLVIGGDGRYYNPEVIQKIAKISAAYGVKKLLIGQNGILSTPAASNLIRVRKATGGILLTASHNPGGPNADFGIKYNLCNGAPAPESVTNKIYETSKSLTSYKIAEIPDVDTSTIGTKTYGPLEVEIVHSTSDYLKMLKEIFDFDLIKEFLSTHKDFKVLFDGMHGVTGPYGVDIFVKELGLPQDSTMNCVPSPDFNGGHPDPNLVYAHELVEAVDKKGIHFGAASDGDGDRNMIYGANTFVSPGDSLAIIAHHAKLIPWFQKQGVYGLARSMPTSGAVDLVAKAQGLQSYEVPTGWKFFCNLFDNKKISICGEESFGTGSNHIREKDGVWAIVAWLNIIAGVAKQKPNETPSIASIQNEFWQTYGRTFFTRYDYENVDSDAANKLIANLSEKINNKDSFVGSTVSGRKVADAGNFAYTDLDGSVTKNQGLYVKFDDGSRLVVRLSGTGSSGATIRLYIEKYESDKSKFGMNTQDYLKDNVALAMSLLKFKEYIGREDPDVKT
Experimental: (§1) The reaction mixture contained MOPS–NaOH (pH 7.4; 50 mM), MgSO4 (1.5 mM), NADP^+ (1 mM), G6PDH (0.01 U) from L. mesenteroides, Glc-1P (500 μM), Glc-1,6-2P (50 μM), and enzyme (5 nM). The reaction was carried out at 25 °C for 6 min in a total volume of 100 μl. Formation of NADPH was detected in real-time (every 1.5 min), measuring fluorescence signal (excitation at 360 nm; emission at 460 nm). To measure the inhibitory activity, compounds with different concentrations (3% (v/v) DMSO) were added to the reaction system. IC50 values were calculated using the product (NADPH) concentration at 6 min with 500 μM Glc-1P.
(§2) Figure S11: Representative enzyme activity assays for PGMs. Error bars represent standard deviation of three determinations. Panel A and B show the time course of PGMs and PGM mutants in which sugar recognition glutamates are mutated to glutamine. […] Values in parentheses indicate the time at which DTT (1 mM) was added.

AfPGMC353∗ = target: T2, AfPGMC353∗ (Aspergillus fumigatus, UniProt Q4WY53, C131S/C242S/C364S); assay: G6PDH coupled assay for PGM, AfPGMC353∗ variant (C353 the sole cysteine); type: biochemical; conditions: no preincubation; for IC50: IC50 AfPGMC353, AfPGMC353∗ (all other cysteines mutated to serine) 5 nM
T2 construct: Full length AfPGM; 6His-GST (N, cleaved yes); made in house; host or cells: E. coli BL21 (DE3) pLysS
T2 sequence (Q4WY53 whole entry C131S/C242S/C364S): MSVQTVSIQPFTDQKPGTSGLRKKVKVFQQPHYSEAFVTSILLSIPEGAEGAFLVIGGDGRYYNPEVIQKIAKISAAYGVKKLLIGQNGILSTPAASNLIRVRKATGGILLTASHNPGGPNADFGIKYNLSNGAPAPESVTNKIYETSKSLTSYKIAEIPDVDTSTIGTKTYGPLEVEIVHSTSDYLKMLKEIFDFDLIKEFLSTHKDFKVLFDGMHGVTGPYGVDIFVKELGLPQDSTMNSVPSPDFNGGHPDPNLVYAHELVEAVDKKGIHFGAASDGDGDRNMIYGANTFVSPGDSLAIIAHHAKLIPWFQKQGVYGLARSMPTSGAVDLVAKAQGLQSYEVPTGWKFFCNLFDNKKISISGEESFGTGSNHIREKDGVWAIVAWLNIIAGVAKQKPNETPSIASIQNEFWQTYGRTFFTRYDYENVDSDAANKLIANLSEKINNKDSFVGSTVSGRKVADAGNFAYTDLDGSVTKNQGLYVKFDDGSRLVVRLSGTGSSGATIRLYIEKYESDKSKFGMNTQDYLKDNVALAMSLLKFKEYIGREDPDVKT
Experimental: as §1

HsPGM = target: T3, HsPGM (Homo sapiens, UniProt P36871); assay: G6PDH coupled assay for PGM, HsPGM; type: biochemical
T3 construct: Full length HsPGM; 6His-GST (N, cleaved yes); made in house; host or cells: E. coli BL21 (DE3) pLysS (same protocol as AfPGM)
T3 sequence (P36871 1-562): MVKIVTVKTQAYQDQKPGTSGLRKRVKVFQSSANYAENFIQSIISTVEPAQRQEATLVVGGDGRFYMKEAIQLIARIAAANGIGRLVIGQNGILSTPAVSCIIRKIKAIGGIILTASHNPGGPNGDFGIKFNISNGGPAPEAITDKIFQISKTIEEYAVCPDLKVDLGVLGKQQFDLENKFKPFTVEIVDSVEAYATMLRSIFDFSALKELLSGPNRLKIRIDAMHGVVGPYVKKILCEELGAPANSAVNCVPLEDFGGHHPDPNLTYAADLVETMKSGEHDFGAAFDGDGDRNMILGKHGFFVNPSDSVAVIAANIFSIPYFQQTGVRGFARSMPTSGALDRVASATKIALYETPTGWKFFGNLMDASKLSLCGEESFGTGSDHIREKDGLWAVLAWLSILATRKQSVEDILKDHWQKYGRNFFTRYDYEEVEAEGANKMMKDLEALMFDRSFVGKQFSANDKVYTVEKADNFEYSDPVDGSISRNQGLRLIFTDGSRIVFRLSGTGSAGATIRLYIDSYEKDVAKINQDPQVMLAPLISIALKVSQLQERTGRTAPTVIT
Experimental: as §1, §2

[1] = HsPGM 5 nM, no preincubation, > values: highest concentration at which the compound can solubilize, read-out: IC50 HsPGM

Row | Compound | IC50 (AfPGM) | IC50 (AfPGMC353∗) | IC50 (HsPGM; [1]) | IC50 AfPGM (AfPGM) | further results
1 | O=c1ccsn1-c1cc(Cl)cc(Cl)c1F [ISFP5, 2-(3,5-dichloro-2-fluorophenyl)isothiazol-3(2H)-one] | 1 µM and 0.8 µM | 8 µM and 7.8 µM | 10 ± 1 µM |  | 
2 | CCOC(=O)Cn1sccc1=O [ISFP23, ethyl 2-(3-oxoisothiazol-2(3H)-yl)acetate] |  |  |  | no inhibition | 
3 | CCOCCn1sccc1=O [ISFP25, 2-(2-ethoxyethyl)isothiazol-3(2H)-one] |  |  |  | no inhibition | 
4 | O=c1cc(-c2ccccc2)sn1-c1cccc(Cl)c1 [ISFP27, 2-(3-chlorophenyl)-5-phenylisothiazol-3(2H)-one] |  |  |  | no inhibition | 
5 | Cc1csn(-c2cccc(Cl)c2)c1=O [ISFP28, 2-(3-chlorophenyl)-4-methylisothiazol-3(2H)-one] |  |  |  | no inhibition | 
6 | O=c1ccsn1-c1cccc2ccccc12 [ISFP17, 2-(naphthalen-1-yl)isothiazol-3(2H)-one] | 3.3 µM | 16 µM | > 100 µM |  | 
7 | CCOC(=O)CCn1sccc1=O [ISFP24, ethyl 3-(3-oxoisothiazol-2(3H)-yl)propanoate] |  |  |  | no inhibition | 
8 | N#Cc1cccc(-n2sccc2=O)c1 [ISFP14, 3-(3-oxoisothiazol-2(3H)-yl)benzonitrile] | 5.7 µM | 9.5 µM | > 100 µM |  | 
9 | O=c1ccsn1Cc1ccccc1 [ISFP26, 2-benzylisothiazol-3(2H)-one] |  |  |  | no inhibition | 
10 | O=C(c1ccc(-n2sccc2=O)cc1)N1CCOCC1 [ISFP18, 2-(4-(morpholine-4-carbonyl)phenyl)isothiazol-3(2H)-one] | 19 µM | 23 µM | > 100 µM |  | 
11 | CC(C)(C)OC(=O)c1ccc(-n2sccc2=O)cc1 [ISFP8, tert-butyl 4-(3-oxoisothiazol-2(3H)-yl)benzoate] | 3.1 µM | 6.7 µM | > 100 µM |  | 
12 | O=c1ccsn1-c1cccc(CO)c1 [ISFP21, 2-(3-(hydroxymethyl)phenyl)isothiazol-3(2H)-one] | 23 µM | 25 µM | > 400 µM |  | 
13 | Cc1cc(=O)n(-c2cccc(Cl)c2)s1 [ISFP30, 2-(3-chlorophenyl)-5-methylisothiazol-3(2H)-one] | 5.2 µM |  |  |  | IC50 AfPGMC353 (AfPGMC353∗; AfPGMC353∗ (all other cysteines mutated to serine) 5 nM): no inhibition; IC50 HsPGM (HsPGM; HsPGM 5 nM, no preincubation, > values: highest concentration at which the compound can solubilize): no inhibition
14 | O=c1ccsn1CCc1ccccc1 [ISFP22, 2-phenethylisothiazol-3(2H)-one] |  |  |  | no inhibition | 
15 | CCOC(=O)c1cc2cc(-n3sccc3=O)ccc2o1 [ISFP15, ethyl 5-(3-oxoisothiazol-2(3H)-yl)benzofuran-2-carboxylate] | 2.3 µM | 15 µM | > 100 µM |  | 
16 | O=c1ccsn1-c1c(F)cccc1F [ISFP20, 2-(2,6-difluorophenyl)isothiazol-3(2H)-one] | 19 µM | 14 µM | 86 µM |  | 
17 | O=c1ccsn1-c1cccc(Cl)c1 [ISFP13, 2-(3-chlorophenyl)isothiazol-3(2H)-one] | 5.8 µM | 12.2 µM | 100 µM |  | 
18 | CC(C)OC(=O)c1ccc(-n2sccc2=O)cc1 [ISFP11, isopropyl 4-(3-oxoisothiazol-2(3H)-yl)benzoate] | 3.1 µM | 6 µM | > 100 µM |  | 
19 | O=C(OCc1ccccc1)c1ccc(-n2sccc2=O)cc1 [ISFP10, benzyl 4-(3-oxoisothiazol-2(3H)-yl)benzoate] | 2 µM | 4 µM and 3.6 µM | > 100 µM |  | Shift in IC50 against AfPGM over preincubation (AfPGM; 15-min preincubation (Fig. S11C, D)): no shift; IC50 (HsPGM; enzyme preincubated with compound for 15 min (Fig. S11E, F), read-out: IC50 HsPGM after preincubation): 6 µM
20 | CC(=O)OCc1cccc(-n2sccc2=O)c1 [ISFP19, 3-(3-oxoisothiazol-2(3H)-yl)benzyl acetate] | 36 µM | 115 µM | > 400 µM |  | 
21 | O=c1ccsn1-c1ccccc1F [ISFP16, 2-(2-fluorophenyl)isothiazol-3(2H)-one] | 21 µM | 23 µM | > 400 µM |  | 
22 | O=c1ccsn1-c1cccc([N+](=O)[O-])c1 [ISFP12, 2-(3-nitrophenyl)isothiazol-3(2H)-one] | 5.7 µM | 9.5 µM | > 100 µM |  | 
